Assay results from ChEMBL document CHEMBL6103585, “Construction and activity evaluation of novel CHS inhibitors against fungal infections” (Eur J Med Chem, 2025).
In brackets after ≈: the same amount, converted by molar mass. Activity calls are given as the source filed them. The calls are words filed in the database; no cut-off is given here.

What was measured:
Candida albicans [1] = experiment: Antifungal activity against Candida albicans ATCC SC5314 assessed as fungal growth inhibition incubated for 72 hrs by broth microdilution method; format: functional
Candida tropicalis = experiment: Antifungal activity against Candida tropicalis ATCC 1369 assessed as fungal growth inhibition incubated for 72 hrs by broth microdilution method; format: functional
Cryptococcus neoformans = experiment: Antifungal activity against Cryptococcus neoformans ZKCC 2209 assessed as fungal growth inhibition incubated for 72 hrs by broth microdilution method; format: functional
Aspergillus fumigatus = experiment: Antifungal activity against Aspergillus fumigatus KM 8001 assessed as fungal growth inhibition incubated for 72 hrs by broth microdilution method; format: functional
Nakaseomyces glabratus = experiment: Antifungal activity against Candida glabrata assessed as fungal growth inhibition incubated for 72 hrs by broth microdilution method; format: functional
Candida albicans [2] = experiment: Antifungal activity against fluconazole-resistant Candida albicans CaR assessed as reduction in fungal growth incubated for 72 hrs by broth microdilution method; format: functional
Candida albicans [3] = experiment: Antifungal activity against fluconazole-resistant Candida albicans 17# assessed as reduction in fungal growth incubated for 72 hrs by broth microdilution method; format: functional
Candida albicans [4] = experiment: Antifungal activity against fluconazole-resistant Candida albicans 632 assessed as reduction in fungal growth incubated for 72 hrs by broth microdilution method; format: functional
Candida albicans [5] = experiment: Antifungal activity against fluconazole-resistant Candida albicans 901 assessed as reduction in fungal growth incubated for 72 hrs by broth microdilution method; format: functional
Candida albicans [6] = experiment: Antifungal activity against fluconazole-resistant Candida albicans 904 assessed as reduction in fungal growth incubated for 72 hrs by broth microdilution method; format: functional
[7] = Inhibition of chitin synthase extracted from Candida tropicalis ATCC 1369 using UDP-GlcNAc as substrate incubated for 1 hrs
A549 = experiment: Cytotoxicity against human A549 cells incubated for 24 hrs by CCK8 assay; format: functional, cell-based; settings: A549, 24 h
HeLa = experiment: Cytotoxicity against human HeLa cells incubated for 24 hrs by CCK8 assay; format: functional, cell-based
[8] = Binding affinity to chitin synthase (unknown origin) assessed as dissociation constant by SPR analysis
Candida albicans [9] = experiment: Induction of ROS generation in Candida albicans ATCC SC5314 assessed as increase in fluorescence intensity incubated for 12 hrs by fluorescence microscopic analysis; format: functional, organism-based
Candida albicans [10] = experiment: Induction of apoptosis in Candida albicans ATCC SC5314 assessed as viable cells by V-FITC/PI staining based flow cytometric analysis (reference value: 93.3%); format: functional
Candida albicans [11] = experiment: Induction of apoptosis in Candida albicans ATCC SC5314 assessed as early apoptotic cells by V-FITC/PI staining based flow cytometric analysis (reference value: 3.51%); format: functional
Candida albicans [12] = experiment: Induction of apoptosis in Candida albicans ATCC SC5314 assessed as late apoptotic cells by V-FITC/PI staining based flow cytometric analysis (reference value: 0.40%); format: functional
Candida albicans [13] = experiment: Induction of apoptosis in Candida albicans ATCC SC5314 assessed as necrotic cells by V-FITC/PI staining based flow cytometric analysis (reference value: 2.74%); format: functional
Candida albicans [14] = experiment: Fungicidal activity against Candida albicans ATCC SC5314 assessed as live cells (reference value: 92%); format: functional
Candida albicans [15] = experiment: Fungicidal activity against Candida albicans ATCC SC5314 assessed as dead cells (reference value: 8%); format: functional
Candida albicans [16] = experiment: In vivo antifungal activity against Candida albicans 901 infected in mouse model assessed as body weight gain at 5 microg/g, iv pre-infected with fungi by intravenous injection followed by compound administration and measured on day 8; format: functional, organism-based; settings: dose 5.0 µg/g, time 8.0 day
Candida albicans [17] = experiment: In vivo antifungal activity against Candida albicans 901 infected in mouse model assessed as expansion of alveolar spaces in lung at 5 microg/g, iv pre-infected with fungi by intravenous injection followed by compound administration and measured on day 8 by H and E staining based analysis; format: functional, organism-based; settings: dose 5.0 µg/g, time 8.0 day
Candida albicans [18] = experiment: In vivo antifungal activity against Candida albicans 901 infected in mouse model assessed as reduction in genetic material content in lung at 5 microg/g, iv pre-infected with fungi by intravenous injection followed by compound administration and measured on day 8 by H and E staining based analysis; format: functional, organism-based; settings: dose 5.0 µg/g, time 8.0 day
Candida albicans [19] = experiment: In vivo antifungal activity against Candida albicans 901 infected in mouse model assessed as decrease in IL-2 protein expression level at 5 microg/g, iv pre-infected with fungi by intravenous injection followed by compound administration and measured on day 8 by Western blotting analysis; format: functional, organism-based; settings: dose 5.0 µg/g, time 8.0 day
Candida albicans [20] = experiment: In vivo antifungal activity against Candida albicans 901 infected in mouse model assessed as decrease in IFN-gamma protein expression level at 5 microg/g, iv pre-infected with fungi by intravenous injection followed by compound administration and measured on day 8 by Western blotting analysis; format: functional, organism-based; settings: dose 5.0 µg/g, time 8.0 day
Candida albicans [21] = experiment: In vivo antifungal activity against Candida albicans 901 infected in mouse model assessed as decrease in PD-L1 protein expression level at 5 microg/g, iv pre-infected with fungi by intravenous injection followed by compound administration and measured on day 8 by Western blotting analysis; format: functional, organism-based; settings: dose 5.0 µg/g, time 8.0 day
Candida albicans [22] = experiment: In vivo antifungal activity against Candida albicans 901 infected in mouse model assessed as decrease in IDO protein expression level at 5 microg/g, iv pre-infected with fungi by intravenous injection followed by compound administration and measured on day 8 by Western blotting analysis; format: functional, organism-based; settings: dose 5.0 µg/g, time 8.0 day

| Compound | MIC50 (Candida albicans [1]) | MIC50 (Candida tropicalis) | MIC50 (Cryptococcus neoformans) | MIC50 (Aspergillus fumigatus) | MIC50 (Nakaseomyces glabratus) | MIC50 (Candida albicans [2]) | MIC50 (Candida albicans [3]) | MIC50 (Candida albicans [4]) | MIC50 (Candida albicans [5]) | MIC50 (Candida albicans [6]) | IC50 [7] | IC50 (A549) | IC50 (HeLa) | Kd [8] | Activity (Candida albicans [10]) | Activity (Candida albicans [11]) | Activity (Candida albicans [12]) | Activity (Candida albicans [13]) | Activity (Candida albicans [14]) | Activity (Candida albicans [15]) | other results |
| --- | --- | --- | --- | --- | --- | --- | --- | --- | --- | --- | --- | --- | --- | --- | --- | --- | --- | --- | --- | --- | --- |
| NC(=O)OC[C@H](O)[C@@H](O)[C@H](N)C(=O)N[C@H](C(=O)O)[C@H]1O[C@@H](n2cc(CO)c(=O)[nH]c2=O)[C@H](O)[C@@H]1O [POLYOXIN B] | 4 µg/mL (≈ 7.88 µM) | 8 µg/mL (≈ 15.8 µM) | 4 µg/mL (≈ 7.88 µM) | ≥ 16 µg/mL | 2 µg/mL (≈ 3.94 µM) | 8 µg/mL (≈ 15.8 µM) | 2 µg/mL (≈ 3.94 µM) | 4 µg/mL (≈ 7.88 µM) | 4 µg/mL (≈ 7.88 µM) | 8 µg/mL (≈ 15.8 µM) | 25.5 µM | > 50 µM | > 50 µM | 0.00562 µM | 57.5% | 4.93% | 4.5% | 33% | 19% | 81% | Activity (Candida albicans [9]): Active; Activity (Candida albicans [16]): Active; Activity (Candida albicans [17]): Active; Activity (Candida albicans [18]): Active; Activity (Candida albicans [19]): Active; Activity (Candida albicans [20]): Active; Activity (Candida albicans [21]): Active; Activity (Candida albicans [22]): Active |
| C[C@@H](c1ncncc1F)[C@](O)(Cn1cncn1)c1ccc(F)cc1F | – | – | – | – | – | – | – | – | – | – | – | – | – | – | – | – | – | – | – | – | Activity (Candida albicans [17]): inactive |
| CC(=O)N1CCN(C(=O)CNC(=O)c2nc3ccc(Cl)cc3c(=O)[nH]2)CC1 | 1 µg/mL (≈ 2.55 µM) | 1 µg/mL (≈ 2.55 µM) | ≥ 16 µg/mL | 8 µg/mL (≈ 20.4 µM) | 2 µg/mL (≈ 5.1 µM) | – | – | – | – | – | – | – | – | – | – | – | – | – | – | – | – |
| O=C(NCC(=O)N1CCN(c2ccccc2)CC1)c1nc2ccc(Cl)cc2c(=O)[nH]1 | 0.5 µg/mL (≈ 1.17 µM) | 1 µg/mL (≈ 2.35 µM) | 2 µg/mL (≈ 4.7 µM) | 4 µg/mL (≈ 9.39 µM) | 1 µg/mL (≈ 2.35 µM) | 4 µg/mL (≈ 9.39 µM) | 2 µg/mL (≈ 4.7 µM) | 8 µg/mL (≈ 18.8 µM) | 8 µg/mL (≈ 18.8 µM) | 4 µg/mL (≈ 9.39 µM) | – | > 50 µM | > 50 µM | 0.0608 µM | 62.9% | 13.2% | 7.3% | 16.6% | 22% | 78% | – |
| O=C(NCC(=O)N1CCN(C(=O)c2ccccc2)CC1)c1nc2ccc(Cl)cc2c(=O)[nH]1 | 0.5 µg/mL (≈ 1.1 µM) | 0.5 µg/mL (≈ 1.1 µM) | 4 µg/mL (≈ 8.81 µM) | 2 µg/mL (≈ 4.41 µM) | 1 µg/mL (≈ 2.2 µM) | 2 µg/mL (≈ 4.41 µM) | 4 µg/mL (≈ 8.81 µM) | 4 µg/mL (≈ 8.81 µM) | 8 µg/mL (≈ 17.6 µM) | 2 µg/mL (≈ 4.41 µM) | 19.7 µM | > 50 µM | > 50 µM | 0.00194 µM | 53.2% | 11.1% | 12.1% | 23.6% | 6% | 94% | Activity (Candida albicans [9]): Active |
| OC(Cn1cncn1)(Cn1cncn1)c1ccc(F)cc1F [FLUCONAZOLE] | 1 µg/mL (≈ 3.27 µM) | 0.5 µg/mL (≈ 1.63 µM) | 2 µg/mL (≈ 6.53 µM) | 4 µg/mL (≈ 13.1 µM) | 1 µg/mL (≈ 3.27 µM) | ≥ 16 µg/mL | ≥ 16 µg/mL | ≥ 16 µg/mL | ≥ 16 µg/mL | ≥ 16 µg/mL | – | – | – | – | – | – | – | – | – | – | – |
| O=C(CNC(=O)c1nc2ccc(Cl)cc2c(=O)[nH]1)NCc1ccccc1 | 4 µg/mL (≈ 10.8 µM) | 2 µg/mL (≈ 5.39 µM) | ≥ 16 µg/mL | 8 µg/mL (≈ 21.6 µM) | 8 µg/mL (≈ 21.6 µM) | – | – | – | – | – | 30.3 µM | – | – | – | – | – | – | – | – | – | – |
| O=C(CNC(=O)c1nc2ccc(Cl)cc2c(=O)[nH]1)Nc1cccnc1 | 8 µg/mL (≈ 22.4 µM) | 8 µg/mL (≈ 22.4 µM) | 8 µg/mL (≈ 22.4 µM) | ≥ 16 µg/mL | 4 µg/mL (≈ 11.2 µM) | – | – | – | – | – | – | – | – | – | – | – | – | – | – | – | – |
